Consider one molecule from US11998549B2, “Methods of treating a vascular leakage-associated disease or disorder” (UNITY HEALTH TORONTO, priority 2019, dated 2024).

Assay [1] relates to human umbilical vein endothelial cells (HUVECs). Description: FITC dextran leakage assay in HUVEC monolayer. To be noted: HUVEC on transwell, LPS 1 μg/ml + UNC0642 2.5 nM. It is filed as cell-based. Here is the method: To determine the functional significance of G9a inhibition in human cells, solute permeability and electrical resistance across a confluent HUVEC monolayer was assessed. For both experiments, HUVEC were seeded at 1×10^6 cells/ml on Matrigel™ coated 3-μm pore size transwell inserts in 24-well plates from BD Discovery Labware™ (catalog number 354575) and grown to confluency. The cells were then treated with either the vehicle, LPS (1 μg/ml) or LPS (1 μg/ml)+UNC0642 (2.5 nM).
Assessment of Paracellular Permeability: Dextran sulfate-FITC (3 kD, Invitrogen™ Molecular Probes catalog number D-3306) was added to the lower chamber to a final concentration of 10 μg/ml. Simultaneously, the different treatment conditions mentioned above were added to the lower chamber. FITC fluorescence was measured at different time intervals (0 h, 1.5 h, 2.5 h, 24 h) in samples taken from the top chamber as a measure of paracellular dextran leak. […] (FIG. 11, Panel A)

Assay [2] has as its system Beas2b human airway epithelial cells. Description: TNFα-induced ROS production (DCF assay) in beas2b cells. It is filed as cell-based. To be noted: TNFα 10 ng/mL, 24 hr. On the procedure:
Beas2b human airway epithelial cells were grown to 70% confluency. Cells were treated with TNFα (10 ng/mL) or an equal volume of nuclease-free water in the presence of 0, 0.25, 2.5, or 25 nM of UNC0642. Cell lysates were collected in 1×PBS after 24 hr and freeze-thawed twice to lyse the cells completely. In vitro ROS was measured using OxiSelect In Vitro ROS/RNS Assay Kit with DCF standard. ROS (nM) was calculated from the standard curve and values were normalized by total amount of protein (as measured by Bradford assay). Values are expressed as mean+/−SEM (average of two experimental replicates).

For assay [3], the target named is T1, active human EHMT2/G9a protein fragment (Homo sapiens, UniProt Q96KQ7).
T1 construct: active human EHMT2/G9a protein fragment (ab80323); purchased ab80323
T1 sequence (Q96KQ7 785-1210 limits assumed): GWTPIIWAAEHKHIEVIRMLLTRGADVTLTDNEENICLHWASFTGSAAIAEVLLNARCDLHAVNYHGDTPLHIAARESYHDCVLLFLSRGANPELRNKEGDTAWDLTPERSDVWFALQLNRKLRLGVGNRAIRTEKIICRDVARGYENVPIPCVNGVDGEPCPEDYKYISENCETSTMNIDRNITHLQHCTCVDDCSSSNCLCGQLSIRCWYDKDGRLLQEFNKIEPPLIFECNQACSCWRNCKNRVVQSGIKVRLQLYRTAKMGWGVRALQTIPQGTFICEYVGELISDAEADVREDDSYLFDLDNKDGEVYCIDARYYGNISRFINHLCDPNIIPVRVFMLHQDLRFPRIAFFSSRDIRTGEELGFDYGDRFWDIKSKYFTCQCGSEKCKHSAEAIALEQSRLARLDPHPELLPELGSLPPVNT
Description: G9a inhibitor in vitro histone methyltransferase assay. Type of assay: biochemical. An excerpt:
The commercially available Histone H3 (K9) Methyltransferase Activity Quantification Assay Kit (ab113453) was used for this assay and a modified protocol was adopted. Briefly, the histone substrate is stably captured on the strip wells. Uninhibited G9a methyltransferase (active human EHMT2/G9a protein fragment (ab80323)) will transfer a methyl group to histone H3 substrate from Adomet to methylate the substrate at lysine 9. The methylated histone H3K9 can be recognized with a high-affinity antibody. The ratio or amount of methylated H3K9, which is directly proportional to enzyme activity, can be quantified through HRP-conjugated secondary antibody color development system. In the presence of inhibitors of G9a methyltransferase, this reaction will be inhibited. […] The color should change to yellow and absorbance can be read on a microplate reader at 450 nm within 2-15 minutes.
G9a activity or inhibition was calculated as follows: plot OD value versus amount of G9a Standard and determine the slope. […]

A further assay concerns CLP-induced mortality. Description: Mouse cecal ligation and puncture (CLP) model of sepsis, survival. It is filed as in vivo. The note with it: intravenous infusion of 1 mg/kg. Here is the method: The CLP model is a well established clinically relevant model for human sepsis (Smeding et al., 2012; Amatullah et al., 2016). Male 8-12 week old C57/B16 mice (Jackson lab) were randomized to CLP or sham surgeries. In anesthetised mice, the cecum was exteriorized, ligated, and perforated. Control animals were exposed to sham surgery, in which the cecum was manipulated, but not ligated or punctured. After surgery, animals received daily fluid resuscitation (subcutaneous (s.c.) 50 ml/kg saline), antibiotic (intraperitoneal (i.p.) imipenem 25 mg/kg) and pain management (s.c. buprenorphine 0.2 mg/kg). Experiments were divided into 2 groups: (1) to assess 7-day survival, and (2) to identify a mechanism of action of a G9a inhibitor in vivo. All experimental mice were randomized and investigators were blinded to group assignment.

As to `COc1cc2c(NC3CCN(C(C)C)CC3)nc(N3CCC(F)(F)CC3)nc2cc1OCCCN1CCCC1` [UNC0642, 2-(4,4-Difluoropiperidin-1-yl)-6-methoxy-N-[1-(propan-2-yl)piperidin-4-yl]-7-(3-(pyrrolidin-1-yl)propoxy]quinazolin-4-amine], the “LPS induced vessel permeability (FITC dextran leakage)” value in assay [1] is “protects against LPS induced vessel permeability”. Moreover, the “TNFα-induced increased ROS production” value in assay [2] was “significantly lowered”. Also, the G9a methyltransferase activity result in assay [3] is “inhibits G9a methyltransferase activity in a dose dependent manner”. Besides, the “Reduction of CLP-induced absolute mortality” value with CLP-induced mortality was roughly 50%.
